In patent US20100233737A1, “MARKER SPECIFIC TO AN OXIDATIVE DEGRADATION OF TISSUES CONTAINING TYPE III COLLAGEN, MEANS AND METHODS AND KITS FOR THE DIAGNOSIS, MONITORING OR PROGNOSIS OF PATHOLOGIES TARGETED BY THIS MARKER” (priority 2006, published 2010):
No end group written: not given here.

System: antiserum anti-IIINys (polyclonal, directed against SEQ ID No. 2)
Experiment: Competitive ELISA, specificity of the antiserum anti IIINys vis-à-vis different peptides
Type: binding, rabbit
Details: biotinylated IIINys coated on plate, competitor peptide in solution
Procedure: FIG. 4 illustrates the specificity of the polyclonal antibodies prepared vis-à-vis the IIINys, with respect to other synthetic peptides. B/B0 represents the ratio between the quantity of anti-IIINys antibodies fixed to the antigen fixed (“coated”) onto the plate in the presence of competitor compound (B) and in the absence of competitor compound (B0).
Rabbits were injected by intra-peritoneal route with the peptide conjugated to KLH emulsified with Freund's complete adjuvant. This operation was repeated 3 times over three months using the same peptide with Freund's incomplete adjuvant. After each injection a sample of rabbit blood was taken. This blood was left to coagulate for 30 minutes and the whole sample was centrifuged for 10 minutes at 2500 rpm in order to recover the serum. Ten days after the last injection, the rabbits were sacrificed and all the blood was recovered. Each serum sample was titrated by ELISA technique in the presence of the synthetic peptide. The antiserum with the best titre was selected for the finalization of the competitive ELISA (Harlow and Lane, 1988a).
The peptide conjugated to the biotin diluted with the coating buffer is adsorbed on plates avidinated for 2 hours at ambient temperature. After washing, 50 μl of antisera diluted to the optimum titre are added to 50 μl of standard (synthetic peptide diluted in buffer) or to 50 μl of samples to be assayed and are left to incubate overnight at 4° C. After washing, 100 μl of secondary antibodies coupled to the peroxidase directed against the rabbit immunoglobulins are added over one hour at ambient temperature. The wells are washed and 100 μl of substrate (TMB) are added. The reaction is stopped with 100 μl of H2SO4.
The antiserum selected was tested vis-à-vis different peptides according to the ELISA method described previously in order to verify its specificity (FIG. 4). The peptides tested are: the peptide IIINys of sequence SEQ ID No. 2 (the immunogenic peptide), the peptide of sequence SEQ ID No. 3 (the peptide IIINys with only the first tyrosine nitrosylated), the peptide of sequence SEQ ID No. 4 (the peptide IIINys with only the second tyrosine nitrosylated), the peptide of sequence SEQ ID No. 9 (the peptide IIINys with an additional amino acid on the N-terminal side), the peptide of sequence SEQ ID No. 8 (the peptide IIINys with its tyrosines non nytrosylated), 3-nitrotyrosine (FIG. 2), with the nitrosylated BSA of sequence SEQ ID No. 11.

Question: With “QYDSYDVKSG [SEQ ID No. 8, the peptide IIINys with its tyrosines non nitrosylated]” as the compound, how does the “competition with the peptide IIINys (SEQ ID No. 2) adsorbed on the plate for the antiserum (B/B0, FIG. 4)” value read?
Answer: not capable of entering into competition

Question: “PQY*DSY*DVKSG (PQYDSYDVKSG; not fully specified (residues 3, 6); printed as PQY*DSY*DVKSG) [SEQ ID No. 9, the peptide IIINys with an additional amino acid on the N-terminal side, reference compound]” was tested. Which “competition with the peptide IIINys (SEQ ID No. 2) adsorbed on the plate for the antiserum (B/B0, FIG. 4)” value did it give?
Answer: not capable of entering into competition

Question: Which “competition with the peptide IIINys (SEQ ID No. 2) adsorbed on the plate for the antiserum (B/B0, FIG. 4)” value does the source give for “QY*DSYDVKSG [SEQ ID No. 3, the peptide IIINys with only the first tyrosine nitrosylated]” here?
Answer: less affinity than for the peptide IIINys

Question: “QYDSY*DVKSG [SEQ ID No. 4, the peptide IIINys with only the second tyrosine nitrosylated]” was tested. Which “competition with the peptide IIINys (SEQ ID No. 2) adsorbed on the plate for the antiserum (B/B0, FIG. 4)” value did it give?
Answer: less affinity than for the peptide IIINys

Question: `N[C@@H](Cc1ccc(O)c([N+](=O)[O-])c1)C(=O)O` [3-nitrotyrosine, reference compound] was tested. Which “competition with the peptide IIINys (SEQ ID No. 2) adsorbed on the plate for the antiserum (B/B0, FIG. 4)” value did it give?
Answer: not capable of entering into competition
